Test results from patent US20260242440A1, “NOVEL MEANS TO MODULATE NMDA RECEPTOR-MEDIATED TOXICITY” (FUNDAMENTAL PHARMA GMBH, priority 2018, published 2026).

Tests used:
HEK293 cells = assay: Luminescent cytotoxicity assay, HEK293 cells transfected with GRIN1 and GRIN2A or GRIN2B; assay type: cell-based, human; conditions: compound added 6 h after transfection; cell death 48 h after transfection
Description: HEK293 cells were cultured in Dulbecco's Modified Eagle Medium (DMEM, Gibco™ 41965-039) supplement with 10% Fetal Bovine Serum (FBS, Gibco™, 10270), 1% Sodium Pyruvate (Gibco™, 11360070), 1% MEM NEAA (GibcoT^M, 11140035) and 0.5% Penicillin-Streptomycin (P-S; Sigma, P0781) and Passagel5-25 were used for experiments.
To test the cytotoxicity of compounds according to the present invention, HEK293 cells (70-80% confluent) were transfected 24 hours after plating with both GRIN1 and GRIN2 Å or GRIN2B, respectively (1:[…]) with Lipofectamine 2000 according to manufacturer's instructions. The relative number of dead cells in the population at the indicated time points after transfection was measured with the CytoTox-Glo™ Cytotoxicity assay (Promega, G9290) according to manufacturer's instruction with minor modification. Briefly, 10% of total medium were mixed with 10 μL AAF-amino luciferin to reach a final volume at 200 μL with water, the dead cell relative luminescence units (DRLU) was measured by GloMax (Promega) in a 96 well white bottom polystyrene microplate (Corning Costar®, 3912). After all the measurements, lysis reagents have been added to the cells and 10% of lysate was used for the total cell relative luminescence units (TRLU) measurement. Cell death was calculated by the following equations: […]
For drug testing, P4, P8, P9, P13 and P15 were added to the medium at indicated concentration 6 h after transfection. DRLU, TRLU and cell death were measured and calculated 48 h after transfection.

[1] = test system: primary mouse hippocampal neurons; assay: NMDA induced cell death (excitotoxicity) in cultured primary neurons; assay type: cell-based; conditions: polypeptide expressed via rAAV infection on DIV3; NMDA 20 μM for 10 min; cell death assessed 24 h later

CCN(CCN)Cc1cccc(Br)c1 [P4]
NMDA receptor induced cell death (HEK293 cells): reduced the level of NMDA receptor induced cell death

SEQ ID NO:5: polypeptide, amino acid residues 633-689 of mouse TRPM4 (NSEERAARLLLRRCPLWGEATCLQLAMQADARAFFAQDGVQSLLTQKWWGEMDSTTP; listed as Mus musculus)
protection against NMDA induced cell death (neuroprotective effect) [1]: neuroprotective
